Measurements as given in ChEMBL document CHEMBL1153072, “Synthesis and structure-activity relationship of dicationic diaryl ethers as novel potent anti-MRSA and anti-VRE agents” (2009).
Converted amounts (≈) assume the structure as drawn.

Legend:
Format in all cases: functional
[1] = system: Staphylococcus aureus; assay: Antibacterial activity against methicillin-resistant Staphylococcus aureus ATCC 33591
[2] = system: Bacillus cereus; assay: Antibacterial activity against Bacillus cereus ATCC 11778
[3] = system: Staphylococcus aureus; assay: Antibacterial activity against Staphylococcus aureus ATCC 29213
[4] = system: Bacillus subtilis; assay: Antibacterial activity against Bacillus subtilis ATCC 23857
[5] = system: Enterococcus faecium; assay: Antibacterial activity against vancomycin-resistant Enterococcus faecium ATCC 700221
[6] = system: Staphylococcus aureus; assay: Antibacterial activity against multidrug resistant Staphylococcus aureus BAA-39
[7] = system: Clostridium perfringens; assay: Antibacterial activity against Clostridium perfringens ATCC 10388
[8] = system: Staphylococcus epidermidis; assay: Antibacterial activity against Staphylococcus epidermidis ATCC 12228
[9] = system: Bacteroides fragilis; assay: Antibacterial activity against […] ATCC 23745
[10] = system: Streptococcus pneumoniae; assay: Antibacterial activity against Streptococcus pneumoniae ATCC 6301
[11] = system: Staphylococcus epidermidis; assay: Antibacterial activity against methicillin-resistant Staphylococcus epidermidis ATCC 51625
[12] = system: Enterococcus faecalis; assay: Antibacterial activity against vancomycin-resistant Enterococcus faecalis ATCC 51575
[13] = system: Candida albicans; assay: Antifungal activity against Candida albicans ATCC 90028

Row | Compound | MIC [1] [µg/mL] | MIC [2] [µg/mL] | MIC [3] [µg/mL] | MIC [4] [µg/mL] | MIC [5] [µg/mL] | MIC [6] [µg/mL] | MIC [7] [µg/mL] | MIC [8] [µg/mL] | MIC [9] [µg/mL] | MIC [10] [µg/mL] | MIC [11] [µg/mL] | MIC [12] [µg/mL] | MIC [13] [µg/mL]
1 | CC(C)NC(=N)c1ccc2[nH]c(-c3ccc(Oc4ccc(-c5nc6cc(C(=N)NC(C)C)ccc6[nH]5)c(C(F)(F)F)c4)cc3)nc2c1 | 0.25 (≈ 0.391 µM) | 0.12 (≈ 0.188 µM) | 0.5 (≈ 0.783 µM) | ≤ 0.06 | ≤ 0.06 | 0.5 (≈ 0.783 µM) | 0.25 (≈ 0.391 µM) | ≤ 0.06 | 8 (≈ 12.5 µM) | ≤ 0.06 | 0.12 (≈ 0.188 µM) | 0.12 (≈ 0.188 µM) | 4 (≈ 6.26 µM)
2 | N=C(c1ccc2[nH]c(-c3ccc(Oc4ccc(-c5nc6cc(C(=N)N7CCCC7)ccc6[nH]5)cc4)cc3)nc2c1)N1CCCC1 | 0.25 (≈ 0.42 µM) | 0.12 (≈ 0.202 µM) | 0.25 (≈ 0.42 µM) | < 0.06 | < 0.06 | 0.5 (≈ 0.841 µM) | 0.5 (≈ 0.841 µM) | 0.12 (≈ 0.202 µM) | 2 (≈ 3.36 µM) | < 0.06 | 0.12 (≈ 0.202 µM) | 0.25 (≈ 0.42 µM) | 4 (≈ 6.73 µM)
3 | CC(C)NC(=N)c1ccc2[nH]c(-c3ccc(Oc4ccc(-c5nc6cc(C(=N)NC(C)C)ccc6[nH]5)cc4)cc3)nc2c1 | 0.12 (≈ 0.21 µM) | < 0.06 | 0.25 (≈ 0.438 µM) | < 0.06 | < 0.06 | 0.5 (≈ 0.876 µM) | 0.5 (≈ 0.876 µM) | < 0.06 | 2 (≈ 3.5 µM) | < 0.06 | < 0.06 | 0.12 (≈ 0.21 µM) | 1 (≈ 1.75 µM)
4 | CC(C)NC(=N)c1ccc2[nH]c(-c3ccc(Oc4ccc(-c5nc6cc(C(=N)NC(C)C)ccc6[nH]5)nc4)cc3)nc2c1 | 0.5 (≈ 0.875 µM) | 0.12 (≈ 0.21 µM) | 0.5 (≈ 0.875 µM) | ≤ 0.06 | ≤ 0.06 | 0.5 (≈ 0.875 µM) | 0.5 (≈ 0.875 µM) | 0.12 (≈ 0.21 µM) | 32 (≈ 56 µM) | ≤ 0.06 | 0.12 (≈ 0.21 µM) | 0.12 (≈ 0.21 µM) | 4 (≈ 7 µM)
5 | CC(C)NC(=N)c1ccc2[nH]c(-c3ccc(Oc4ccc(-c5nc6cc(C(=N)NC(C)C)ccc6[nH]5)cc4Cl)cc3)nc2c1 | 0.25 (≈ 0.413 µM) | 0.12 (≈ 0.198 µM) | 0.25 (≈ 0.413 µM) | 0.12 (≈ 0.198 µM) | ≤ 0.06 | 0.25 (≈ 0.413 µM) | 0.5 (≈ 0.826 µM) | ≤ 0.06 | 16 (≈ 26.4 µM) | ≤ 0.06 | ≤ 0.06 | 0.25 (≈ 0.413 µM) | 1 (≈ 1.65 µM)
6 | CC(C)NC(=N)c1ccc2[nH]c(-c3ccc(Oc4ccc(-c5nc6cc(C(=N)NC(C)C)ccc6[nH]5)c(Cl)c4)cc3)nc2c1 | 0.12 (≈ 0.198 µM) | 0.12 (≈ 0.198 µM) | 0.25 (≈ 0.413 µM) | ≤ 0.06 | ≤ 0.06 | 0.5 (≈ 0.826 µM) | 0.25 (≈ 0.413 µM) | ≤ 0.06 | 4 (≈ 6.61 µM) | ≤ 0.06 | ≤ 0.06 | 0.12 (≈ 0.198 µM) | 2 (≈ 3.3 µM)
7 | CN[C@H](CC(C)C)C(=O)N[C@H]1C(=O)N[C@@H](CC(N)=O)C(=O)N[C@H]2C(=O)N[C@H]3C(=O)N[C@H](C(=O)N[C@H](C(=O)O)c4cc(O)cc(O)c4-c4cc3ccc4O)[C@H](O)c3ccc(c(Cl)c3)Oc3cc2cc(c3O[C@@H]2O[C@H](CO)[C@@H](O)[C@H](O)[C@H]2O[C@H]2C[C@](C)(N)[C@H](O)[C@H](C)O2)Oc2ccc(cc2Cl)[C@H]1O [VANCOMYCIN] | – | ≤ 1 | – | 0.12 (≈ 0.0828 µM) | > 64 | – | 0.12 (≈ 0.0828 µM) | – | 4 (≈ 2.76 µM) | 1 (≈ 0.69 µM) | – | > 64 | > 32
8 | N=C(c1ccc2[nH]c(-c3ccc(Oc4ccc(-c5nc6cc(C(=N)N7CCOCC7)ccc6[nH]5)cc4)cc3)nc2c1)N1CCOCC1 | 0.5 (≈ 0.798 µM) | 0.12 (≈ 0.191 µM) | 1 (≈ 1.6 µM) | 0.5 (≈ 0.798 µM) | 0.5 (≈ 0.798 µM) | 0.5 (≈ 0.798 µM) | 2 (≈ 3.19 µM) | 0.25 (≈ 0.399 µM) | 8 (≈ 12.8 µM) | 0.5 (≈ 0.798 µM) | 0.5 (≈ 0.798 µM) | 0.5 (≈ 0.798 µM) | 16 (≈ 25.5 µM)
9 | CCN1CCN(C(=N)c2ccc3[nH]c(-c4ccc(Oc5ccc(-c6nc7cc(C(=N)N8CCN(CC)CC8)ccc7[nH]6)cc5)cc4)nc3c2)CC1 | 1 (≈ 1.47 µM) | 0.5 (≈ 0.734 µM) | 1 (≈ 1.47 µM) | 0.5 (≈ 0.734 µM) | 1 (≈ 1.47 µM) | 1 (≈ 1.47 µM) | 16 (≈ 23.5 µM) | 0.5 (≈ 0.734 µM) | 16 (≈ 23.5 µM) | 0.5 (≈ 0.734 µM) | 0.5 (≈ 0.734 µM) | 1 (≈ 1.47 µM) | 32 (≈ 47 µM)
10 | CC1CCN(C(=N)c2ccc3[nH]c(-c4ccc(Oc5ccc(-c6nc7cc(C(=N)N8CCC(C)CC8)ccc7[nH]6)cc5)cc4)nc3c2)CC1 | 0.25 (≈ 0.384 µM) | < 0.06 | 0.25 (≈ 0.384 µM) | 0.12 (≈ 0.184 µM) | 0.25 (≈ 0.384 µM) | 0.25 (≈ 0.384 µM) | 1 (≈ 1.54 µM) | 0.12 (≈ 0.184 µM) | 4 (≈ 6.15 µM) | 0.12 (≈ 0.184 µM) | 0.12 (≈ 0.184 µM) | 0.5 (≈ 0.768 µM) | 4 (≈ 6.15 µM)
11 | CCC(C)NC(=N)c1ccc2[nH]c(-c3ccc(Oc4ccc(-c5nc6cc(C(=N)NC(C)CC)ccc6[nH]5)cc4)cc3)nc2c1 (configuration not stated) | 0.25 (≈ 0.418 µM) | < 0.06 | 0.5 (≈ 0.835 µM) | < 0.06 | < 0.06 | 0.5 (≈ 0.835 µM) | 0.5 (≈ 0.835 µM) | 0.12 (≈ 0.2 µM) | 16 (≈ 26.7 µM) | < 0.06 | 0.12 (≈ 0.2 µM) | 0.25 (≈ 0.418 µM) | 2 (≈ 3.34 µM)
12 | N=C(NC1CCCC1)c1ccc2[nH]c(-c3ccc(Oc4ccc(-c5nc6cc(C(=N)NC7CCCC7)ccc6[nH]5)cc4)cc3)nc2c1 | 0.5 (≈ 0.803 µM) | < 0.06 | 0.25 (≈ 0.401 µM) | < 0.06 | < 0.06 | 0.5 (≈ 0.803 µM) | 0.25 (≈ 0.401 µM) | 0.12 (≈ 0.193 µM) | 32 (≈ 51.4 µM) | < 0.06 | 0.12 (≈ 0.193 µM) | 0.25 (≈ 0.401 µM) | 2 (≈ 3.21 µM)
13 | N=C(c1ccc2[nH]c(-c3ccc(Oc4ccc(-c5nc6cc(C(=N)N7CCCCCC7)ccc6[nH]5)cc4)cc3)nc2c1)N1CCCCCC1 | 0.25 (≈ 0.384 µM) | 0.5 (≈ 0.768 µM) | 0.25 (≈ 0.384 µM) | 0.25 (≈ 0.384 µM) | 0.5 (≈ 0.768 µM) | 0.25 (≈ 0.384 µM) | 2 (≈ 3.07 µM) | 0.12 (≈ 0.184 µM) | 4 (≈ 6.15 µM) | 0.12 (≈ 0.184 µM) | 0.25 (≈ 0.384 µM) | 0.5 (≈ 0.768 µM) | 8 (≈ 12.3 µM)
14 | O=C(O)c1cn(C2CC2)c2cc(N3CCNCC3)c(F)cc2c1=O [CIPROFLOXACIN] | ≤ 0.12 | ≤ 0.12 | 0.5 (≈ 1.51 µM) | ≤ 0.12 | > 64 | 8 (≈ 24.1 µM) | – | ≤ 0.12 | 0.5 (≈ 1.51 µM) | – | ≤ 0.12 | 0.5 (≈ 1.51 µM) | –
15 | CC1CC(C)CN(C(=N)c2ccc3[nH]c(-c4ccc(Oc5ccc(-c6nc7cc(C(=N)N8CC(C)CC(C)C8)ccc7[nH]6)cc5)cc4)nc3c2)C1 (configuration not stated) | 0.25 (≈ 0.368 µM) | 1 (≈ 1.47 µM) | 0.5 (≈ 0.737 µM) | 0.25 (≈ 0.368 µM) | 0.5 (≈ 0.737 µM) | 0.5 (≈ 0.737 µM) | 2 (≈ 2.95 µM) | 0.25 (≈ 0.368 µM) | 4 (≈ 5.89 µM) | 0.5 (≈ 0.737 µM) | 0.5 (≈ 0.737 µM) | 1 (≈ 1.47 µM) | 8 (≈ 11.8 µM)
